US20240287135A1, “ANTIMICROBIAL PEPTIDE OR PEPTIDE DERIVATIVE, SUBSTITUTE, AND COMPOSITION THEREOF, AND PREPARATION METHOD AND APPLICATION OF COMPOSITION” (QC BIO-TECHNOLOGY (SHENZHEN) CO., LTD., priority 2021, published 2024)
Ends that are not written are not given here.

Assays:
E. coli = E. coli inhibition test (colony count on agarose plate); assay type: cell-based, Escherichia coli; details: for number of E. coli clones on plate: AMP 200 μg/mL mixed 1:1 with bacterial solution, 15 min room temperature, cultivated 37 °C 12 h, control 251 clones
Protocol: The 39 AMPs synthesized in Examples 1 to 39 each were subjected to an E. coli inhibition test. 30 μL of an E. coli bacterial solution was taken and mixed with 30 μL of each of the AMPs (concentration: 200 μg/mL), and 30 μL of a PBS isotonic solution was adopted to prepare a control; a reaction was allowed at room temperature for 15 min, and a resulting bacterial solution was evenly coated on an agarose plate and cultivated at 37 °C for 12 h; and the number of E. coli bacteria on each plate was counted and recorded.
In order to make the experimental results clearer, 6 experimental samples were taken for control analysis.

K562 cells = assay: Killing of the AMP for tumor cells (FCM PI kit); assay type: cell-based; details: 10 ng, 20 ng and 40 ng of AMP
Protocol: K562 cells were cultivated, a same amount of K562 cells was taken and mixed with 10 ng, 20 ng, and 40 ng of the AMP of SEQ ID NO: 8 to allow a reaction, and apoptotic cells were determined by a flow cytometry (FCM) PI kit.

oral bacteria = assay: Inhibition on oral bacteria (mouthwash from the elderly, sheep blood agar); assay type: cell-based; details: 30 min, anaerobic 37 °C 4 d
Protocol: Mouthwash was taken from the elderly and divided into 4 parts of equal amounts, and the 4 parts each were mixed with a solution of 2 mg/mL SEQ ID NO: 8 at different amounts for 30 min and then evenly coated on plates with sheep blood agar, where A: PBS (control), B: 2 μL, C: 10 μL, and D: 20 μL; and resulting mixtures each were anaerobically cultivated at 37 °C for 4 d, and the number of colonies on each plate was observed.

RNA viruses = assay: Killing of the AMP for RNA viruses (RT-PCR after infection of 293T); assay type: cell-based; details: supernatant mixed with equal amount of 200 μg/mL AMP for 15 min; 293T infected 12 h; control 1.7×10^7
Protocol: The plasmids pNL4.3Δ, pVSV-G, p-enhancer, and lipo2000 each were used to transfect 293T, then the cells were cultivated at 37° ° C. for two days, a culture supernatant was taken and centrifuged to remove organelle impurities, and 500 μL of a cell supernatant was mixed with an equal amount of 200 μg/mL SEQ ID NO: 8 to allow a reaction for 15 min. In a control group, PBS was used instead of SEQ ID NO: 8. The filter centrifugation (Millipore Amicon Ultra-15) was used to remove the AMP, thereby eliminating a killing effect of the AMP itself on cells. A sample to be tested was used to infect the 293Tcell line, and then the cell line was cultivated at 37° C. for 12 h. The 293T cell line was recovered, and the RT-PCR method was used to determine the infection difference between live viruses for the cells. The control group and the experimental group had the same experimental environment, but the amino acid sequence of SEQ ID NO: 8 of the present application was added in the experimental group.

Human RBCs = assay type: cell-based; details: 20 μL of 1 μg/mL AMP, 2% RBCs, 10 min
Protocol: Human RBCs were taken. 20 μL of a solution of 1 μg/mL AMP of SEQ ID NO: 27 was mixed with 2% RBCs to allow a reaction for 10 min, and a resulting mixture was centrifuged at 1,000 rpm for 3 min.

[1] = tested on: Jurkat cell line (leukemia lymphocytes); assay: Killing of the AMP for leukemia lymphocytes; assay type: cell-based; details: 20 μL of 1 μg/mL AMP, 10^5 cells, 10 min
Protocol: Jurkat cell line (leukemia lymphocytes) was taken. 20 μL of a solution of 1 μg/mL AMP of SEQ ID NO: 10 was mixed with 10^5 cells to allow a reaction for 10 min, and a resulting mixture was centrifuged at 1,000 rpm for 3 min.

[2] = tested on: K562 cell line (leukemia cells); assay: Killing of the AMP for leukemia cells; assay type: cell-based; details: 20 μL of 1 μg/mL AMP, 10^5 cells, 10 min
Protocol: K562 cell line (leukemia cells) was taken. 20 μL of a solution of 1 μg/mL AMP of SEQ ID NO: 17 was mixed with 10^5 cells to allow a reaction for 10 min, and a resulting mixture was centrifuged at 1,000 rpm for 3 min.

[3] = tested on: HypG2 cell line (liver cancer cells); assay: Killing of the AMP for liver cancer cells; assay type: cell-based; details: 20 μL of 1 μg/mL AMP, 10^5 cells, 10 min
Protocol: HypG2 cell line (liver cancer cells) was taken. 20 μL of a solution of 1 μg/mL AMP of SEQ ID NO: 15 was mixed with 10^5 cells to allow a reaction for 10 min, and a resulting mixture was centrifuged at 1,000 rpm for 3 min.

Sequence: HKAVGNMLKIASAVLVHK (antimicrobial peptide, fully synthetic) [SEQ ID NO: 6]
- number of E. coli clones on plate (E. coli): 226 E. coli clones

Sequence: HAMGNMLKIMASAVLVRH [SEQ ID NO: 8, HAMGNMLKIMASAVLVRH]
- number of E. coli clones on plate (E. coli): 1 E. coli clones
- inhibitory effect on E. coli (E. coli; AMP 200 μg/mL, 15 min, plate count (FIG. 1)): most significant inhibitory effect
- cell death (apoptotic cells, FCM PI) (K562 cells): cell death was proportional to the content of the AMP
- growth of oral bacteria on plate (oral bacteria; B: 2 μL of 2 mg/mL solution): a small number of bacteria grew
- growth of oral bacteria on plate (oral bacteria; C: 10 μL of 2 mg/mL solution): no oral bacteria grew
- growth of oral bacteria on plate (oral bacteria; D: 20 μL of 2 mg/mL solution): no oral bacteria grew
- active viral copy (RNA viruses): 5×10^5

Sequence: KAVPNMLKIMASLVLARH [SEQ ID NO: 27, KAVPNMLKIMASLVLARH]
- clumping of RBCs (Human RBCs): human RBCs clump
- hemolysis (Human RBCs): no obvious hemolysis

Sequence: HKRAMPSIVKMIATLVLARKH (antimicrobial peptide, fully synthetic) [SEQ ID NO: 10]
- effect on leukemia lymphocytes (image) [1]: leukemia lymphocytes clump, and some are broken

Sequence: RHAMGQMLRIMASLVLARK [SEQ ID NO: 17]
- effect on leukemia cells (image) [2]: leukemia cells clump

Sequence: RAMPNMLRIMASLVLARKH [SEQ ID NO: 15]
- effect on liver cancer cells (image) [3]: Liver cancer cells clump, and are broken and deformed

Sequence: HAMPNMLRIMASAVLVKR (antimicrobial peptide, fully synthetic) [SEQ ID NO: 7]
- number of E. coli clones on plate (E. coli): 216 E. coli clones

Sequence: HKAVPNMLHIASAVLVRH (antimicrobial peptide, fully synthetic) [SEQ ID NO: 5]
- number of E. coli clones on plate (E. coli): 236 E. coli clones
